Measurements as given in patent publication US9976183B2, “Biomarkers for cancers responsive to modulators of HEC1 activity” (TAIVEX THERAPEUTICS CORPORATION, priority 2011, dated 2018).

Legend:
Format in all cases: cell-based
[1] = tested on: cyclin B1 and cyclin D1 in HeLa; test: Cyclin B1 and cyclin D1 content by immunoblotting; settings: different time periods, immunoblot (FIG. 6C)
Method: Immunoblots: Cell lysates were by incubation of cells in radioimmunoprecipitation assay (RIPA) buffer (50 mM Tris-HCl, pH7.4, 150 mM NaCl, 1% NP40, 0.25% DOC, 0.1% SDS, 1 mM NaVO4, 1 mM EDTA, 1 ug/ml leupeptin, 1 μg/ml pepstatin) or 2.5× sample buffer (50 mM Tris-HCl, pH6.8, 1% SDS, 2.5% BME, 7.5% Glycerol, Bromophenol blue). Tissue samples were immersed in RIPA buffer, disrupted with a homogenizer, and centrifuged to clarify. Samples were then subjected to SDS-PAGE, blotted onto immunoblotting membranes, and incubated with primary antibodies in 3% BSA-TBST. Horseradish peroxidase—conjugated secondary antibodies were used for protein detection by enhanced chemiluminescence (Millipore, Billerica, Mass. 01821 USA). The following antibodies were used for Western blotting: anti-Rb monoclonal antibody 1F8 (Abcam, Cambridge, Mass. 02139-1517 USA); anti-p53 monoclonal antibody (Santa Cruz Biotechnology, Santa Cruz, Calif. 95060 USA); anti-β-actin monoclonal antibody AC-15 (Sigma Aldrich, St. Louis, Mo., USA).
To investigate this possibility, drug-responsive (HeLa, MDA-MB-468, HCT116) and resistant cells (A549) were synchronized by starvation and expression of Hec1 and Nek2 characterized at 1(G1), 27(G27), 32(G32), and 48(G48) hours. Differential expression patterns between Hec1 and Nek2 are apparent, indicating differences in regulation of Hec1/Nek2 pathways (FIG. 6A). […]

PCL/PRF/5 = test: Synergy of Hec1 inhibitor with cytotoxic drug (combination index, MTS); design: key: CI = (CA,X/ICx,A)+(CB,X/ICx,B) at x% drug effect
Method: (§1) Synergy: GI50s for selected drugs were determined and used to calculate a concentration ratio for use synergy assays with Hec1 inhibitors. Cells were treated with drugs 24 hours after being seeded in appropriate seeding numbers into 96 well plates containing low glucose DME with 10% FBS. […] Cell viability was determined by MTS assay using a CellTiter 96® Aqueous non-radioactive cell proliferation assay system (Promega, Madison, Wis. 53711 USA) according to the manufacturer's instructions. Optical density was determined using a Bio-Tek 340 spectrophotometer (Bio-Tek, Winooski, Vt. 05404) and were then processed using Excel (Microsoft, Redmond, Wash. 98052-7329) and GraphPad Prism 5 linear regression software (GraphPad Software, La Jolla, Calif. 92037 USA) to determine concentration-response curves for calculating relative GI50s. Synergy was determined by calculating a combination index value using the formula CI (combination index)=(CA,X/ICx,A)+(CB,X/ICx,B), where CA,X and CB,X are the concentrations of drug A and drug B used in combination to achieve x % drug effect. ICx,A and ICx,B are the concentrations for single agents to achieve the same effect.
(§2) Hec1 inhibitor-responsive cancer cells used for screening were treated with a mixture of Hec1 inhibitor and select anti-cancer drug at appropriate concentration ratios and evaluated for cell viability.

HepG2 = test: as above; design: key: CI = (CA,X/ICx,A)+(CB,X/ICx,B) at x% drug effect
Method: as §1, §2

[2] = in combination with doxorubicin

COCCOc1cnc(Sc2cc(C)c(-c3csc(NC(=O)c4ccncc4)n3)c(C)c2)cn1 [compound 110095, N-(4-(4-(5-(2-methoxyethoxy)pyrazin-2-ylthio)-2,6-dimethylphenyl)thiazol-2-yl)isonicotinamide]
Cyclin B1 and cyclin D1 levels [1]: down regulated | Combination Index (PCL/PRF/5; in combination with KX01): 1.08 | Combination Index (PCL/PRF/5; in combination with Taxol): 0.81 | Combination Index (PCL/PRF/5; [2]): 2.31 | Combination Index (PCL/PRF/5; in combination with sorafenib): 1.41 | Combination Index (PCL/PRF/5; in combination with topotecan): 2.83 | Combination Index (HepG2; in combination with KX01): 2.32 | Combination Index (HepG2; [2]): 3.00 | Combination Index (HepG2; in combination with sorafenib): 1.88 | Combination Index (HepG2; in combination with topotecan): 3.03
